Experimental findings from patent US20230124969A1, “OPHTHALMIC FORMULATION COMPRISING N-[5-(AMINOSULFONYL)-4-METHYL-1,3- THIAZOL-2-YL]-N-METHYL-2-[4-(2-PYRIDINYL)PHENYL]ACETAMIDE HEMIHYDRATE” (AiCuris GmbH & Co. KG, priority 2020, published 2023) are described below.

What all share (assay type): physicochemical
Data set [1] is described as follows: Sterile filtration / filter compatibility: HPLC assay before and after filtration. As to conditions: for assay data before and after filtration: Example 3, 0.05 mg/mL DS, PEG200 stock diluted in GenTeal tears. The protocol:
• Dilute 500 µL of each sample with 500 µL ACN/MeOH/H2O ratio 25:25:50 + 1% HAc (1:2) • Mix it 5 s by vortexing
• Dilute 250 µL of each sample with 730 µL ACN/MeOH/H2O ratio 25:25:50 + 1% HAc and add 20 µL ACN/DMSO 4:1 (1:4) • Mix it 5 s by vortexing
(§1) An amount of 1.5 mL stock solution was diluted with 28.5 mL of the respective artificial tears solution (either GenTeal® Tears or Thera® Tears or Visine® tears) in a beaker and stirred for 2 min with a magnet stirrer. The pH value was determined and samples were taken before and after sterile filtration. The solutions were filtered through CA (cellulose acetate) 0.22 µm filter system. The content of the beaker was withdrawn and respectively 14 mL of the prepared formulation were added to two empty 50 mL tubes. In addition, one empty 2 mL tube was provided and 1.5 mL of the prepared formulation was added to the 2 mL tube. The samples were stored at RT and at a temperature in the range of from 2-8° C. over 5 weeks.
The testing was repeated one time to have samples in duplicate (n=2). An amount of 6 mL of the ophthalmic formulation was withdrawn with a 10 mL syringe. An amount of 1 mL was used to determine the final concentration before filtration. The syringe was connected with a PA 0.2 µm filter via Luer Lok and the solution was filtered. Another sample was taken to determine the final concentration after filtration.
The filter was then disconnected from the syringe and an amount of 3 mL DMSO was withdrawn with the used 10 mL syringe. Then, the syringe was shaken smoothly. An amount of 1 mL was used to determine the final concentration after rinsing. The syringe was again connected to the used PA 0.2 µm filter via Luer Lok the DMSO was filtered. A sample was taken to determine the final concentration after washing.
This protocol was repeated for all tested filters: PA / Nylon, PALE / Nylon, PTFE, PVDF, CM, CA, RC, PP, PES. Each filter contained a filter material with a pore size of 0.2 µm and of 0.45 µm.
The testing was repeated to have samples in triplicate (n=3). An amount of 6 mL of the ophthalmic formulation was withdrawn with a 10 mL syringe. An amount of 1 mL was used to determine the final concentration before filtration. The syringe was connected with the filter via Luer Lok and the solution was filtered. Another sample was taken to determine the final concentration after filtration.
The filter was disconnected from the syringe and an amount of 2 mL DMSO was withdrawn with a fresh 10 mL syringe. The syringe was again connected to the used filter via Luer Lok and the DMSO was filtered. […]
(§2) The amount of hydrochloric acid was added as determined in the pre-testing to adjust the pH to 6.0 and a sample was taken to determine the final concentration before filtration. […]

Data set [2] in a line: Pre-test: PEG 200 stock solutions diluted in GenTeal Tears, visual check for precipitation (Example 1). Particulars: stock solution in PEG 200 diluted with GenTeal tears, visual inspection. The protocol:
In order to prepare the new ophthalmic formulation the drug substance concentrations of both i) stock solution and ii) drug product which is administered to the patient need to be determined. For that propose, a stock solution with different concentrations of Pritelivir free base hemihydrate in PEG 200 was diluted in GenTeal® tears and the precipitation was checked over time. All liquids and the DS were equilibrated to ≥ 20° C. Seven 10 mL tubes were provided. In each of these tubes, 5 ml of PEG 200 were added and the required amount of DS was dissolved therein to provide the following stock solutions: 30 mg/mL, 25 mg/mL, 20 mg/mL, 10 mg/mL, 5 mg/mL, 1 mg/mL, 0.05 mg/mL. The solutions were mixed by vortexing the tubes for 5 s and the tubes were shaken until the DS was dissolved. The stock solutions were diluted with GenTeal® tears and the pH value was measured. After that the samples were checked for precipitation by visual inspection.

Data set [3] can be described thus: In-use stability of ophthalmic formulations stored at room temperature and 2-8 °C. The protocol:
To study the in-use stability over 5 weeks at room temperature (RT) and at a temperature in the range of from 2° C. - 8° C., stock solutions with a concentration of 1.0 mg/mL of DS were prepared in PEG200 and in PEG400. The different stock solutions were diluted in 3 different compositions of artificial tears to a final concentration of 0.05 mg DS per mL ophthalmic formulation.
as §1, with “weeks. […]” for “weeks.”
To study the impact of the pH value on the tendency of the ophthalmic formulation to degrade and precipitate 3 different compositions of artificial tears were adjusted to pH 4.0, 5.0 and 6.0. A stock solution of Pritelivir free base hemihydrate in PEG400 at a concentration of 1.0 mg/mL was prepared. The stock solutions were diluted in the pH adjusted artificial tears at a Pritelivir free base hemihydrate concentration of 0.05 mg/mL and filtered through a RC 0.2 µm sterile filter. It turned out to be preferable to carry out the dilution step for each sample one after the other to keep the time before the filtration step short.
All samples were prepared as triplicates. One sample was prepared after the other to keep the preparation time short and to minimize the risk of precipitation. The stock solution was diluted with pH adjusted artificial tears solution in a tube and gently mixed. A sample was taken to determine the final concentration. An amount of 20 mL of the tube was withdrawn with a 20 mL syringe. Then, the syringe was connected to the RC […] filter via Luer Lok and the solution was filtered in two portions of 10 mL each into two 50 mL tube. Another sample was taken to determine the final concentration after filtration.
The samples were stored at room temperature and at a temperature in the range of from 2° C.-8° C. over 4 weeks.
To determine an acceptable pH value for ophthalmic use, a stock solution of Pritelivir free base hemihydrate in PEG400 was prepared at a concentration 1.0 mg/mL. […]
as §2

A short description of data set [4]: Preparation of 1 mg/mL PEG400 stock solution and ophthalmic formulation with different drug substances (experiments 8-10). Particulars: for suitability as drug substance for preparation of the ophthalmic formulation: three tested drug substances, experiments 1-10. The protocol:
All liquids and the DS were equilibrated to ≥ 20° C. An amount of 20 ml of PEG 400 was added to a 50 mL tube and 20 mg of DS were dissolved therein. The solution was mixed by vortexing the tube for 5 s and the tube was shaken until the DS was dissolved.
To study whether Pritelivir free base hemihydrate can be replaced with Pritelivir mesylate, Experiment 8 was repeated with Pritelivir mesylate monohydrate as DS.
The preparation protocol of Example 8 was followed also for the ophthalmic formulation containing Pritelivir mesylate monohydrate as drug substance.
To study whether Pritelivir free base hemihydrate can be replaced with Pritelivir maleate, Experiment 8 was repeated with Pritelivir maleate as DS.

Like-named read-outs stand apart in the source and are kept apart here.

As for `Cc1nc(N(C)C(=O)Cc2ccc(-c3ccccn3)cc2)sc1S(N)(=O)=O` [Pritelivir free base hemihydrate, N-[5-(aminosulfonyl)-4-methyl-1,3-thiazol-2-yl]-N-methyl-2-[4-(2-pyridinyl)phenyl]acetamide hemihydrate], the “assay data before and after filtration” value in data set [1] (filter material PFTE 0.2 µm) and in data set [1] (filter material RC 0.2 µm) was “identical values” throughout. The “assay content before and after filtration” value in data set [1] (Example 6, 1 mg/mL PEG400 stock diluted with GenTeal Tears to 0.05 mg/mL, RC 0.2 µm filter, six samples) is “comparable”. Also, in data set [2], the “drug load of ophthalmic formulation obtainable without any visually detectable precipitation” value worked out at 24 mg/mL. Also, the impurities on storage result in data set [3] (Example 6, PEG400 stock diluted with GenTeal Tears, 0.05 mg/mL, after 1 week at room temperature) was “increase of impurities”. Moreover, the “time over which samples were stable” value in data set [3] (Example 6, PEG400 stock diluted with GenTeal Tears, 0.05 mg/mL, stored at 2-8° C.) worked out at 1 week. Besides, the “stability in most artificial tears solutions” value in data set [3] (pH 4.0) is on record as “not stable”. The “stability for an ophthalmic formulation” value in data set [3] (pH between 6.0 and 7.0, formulation contains glycerin, hypromellose and polyethylene glycol 400) is given as “sufficiently stable”. Besides, the “suitability as drug substance for preparation of the ophthalmic formulation” value (“suitability as drug substance” for short) in data set [4] is given as “suitable”.

For the compound `Cc1nc(N(C)C(=O)Cc2ccc(-c3ccccn3)cc2)sc1S(N)(=O)=O.O=C(O)/C=C\C(=O)O` [Pritelivir maleate, N-[5-(aminosulfonyl)-4-methyl-1,3-thiazol-2-yl]-N-methyl-2-[4-(2-pyridinyl)phenyl]acetamide maleate], the “solubility in PEG400 / preparation of stock solution” value in data set [4] (at a concentration of 1 mg/mL) is “not possible”. Also, in data set [4], the “suitability as drug substance” value is “insolubility and precipitation problems”.

With “N-[5-(amino-sulfonyl)-4-methyl-1,3-thiazol-2-yl]-N-methyl-2-[4-(2-pyridinyl)phenyl] acetamide mesylate monohydrate [Pritelvir mesylate monohydrate]”, in data set [1] (Comparative Example 1, protocol of Example 8, RC 0.2 µm filter), the “assay level after filtration” value is given as “decreased significantly”. Besides, in data set [4], the “solubility in PEG400 / preparation of stock solution” value is “not soluble”; the “suitability as drug substance” value was “insolubility and precipitation problems”. Moreover, the precipitation result in data set [4] (Comparative Example 1, protocol of Example 8 (PEG400, Visine Tears, 0.1 M HCl)) is given as “Precipitation was observed”.
